Data as given in PubChem BioAssay AID687005 (Broad Institute, 2013).
Inconclusive results are not listed. The source made the active and inactive calls.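 The calls were made as follows: active = Compounds that reduce signal, with fitted half-maximal dose at or under twice the top valid tested dose; inconclusive = Poor fit, or flat curve losing 30 to 70% of signal; inactive = Potency past limit, flat within 30%, or opposite direction.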

Assay: HEK293T cell cytotoxicity, dose response, cytotoxicity control, ATP luminescence, cherry-pick samples (AID 687005)
Conditions: HEK293T viability, ATP luminescence (CellTiter-Glo), 48 h; at 23.5 µM (top of the series)

SMILES	activity change, negative = cytotoxicity
COCCNC(=O)C[C@@H]1C[C@H]2c3cc(NC(=O)C4CCOCC4)ccc3O[C@H]2[C@H](CO)O1	25.9% (inactive)
CC(C)NC(=O)Nc1ccc2c(c1)C(=O)N([C@@H](C)CO)C[C@@H](C)[C@@H](CN(C)C(=O)NC1CCCCC1)OCCCC[C@H](C)O2	-7.35% (inactive)
CCCNC(=O)[C@@H]1[C@@H](CO)[C@@H]2Cn3c(cccc3=O)[C@H]1N2C(=O)Nc1cc(F)ccc1F	27.4% (inactive)
C[C@H]1CN([C@@H](C)CO)C(=O)Cc2cc(NC(=O)C3CC3)ccc2O[C@@H]1CN(C)C(=O)Nc1cccc2ccccc12	-3.99% (inactive)
O=C(NC1CCCCC1)N[C@H]1C=C[C@@H](CC(=O)N2CCOCC2)O[C@H]1CO	14.2% (inactive)

Same assay, conditions: HEK293T viability, ATP luminescence (CellTiter-Glo), 48 h; at 26 µM (top of the series)

SMILES	activity change, negative = cytotoxicity
CCC(=O)N1C[C@H](O)COC[C@@H]2O[C@@H](CC(=O)NCc3ccccc3Cl)CC[C@H]21	1.37% (inactive)
C[C@H]1CN([C@@H](C)CO)C(=O)c2cc(C#Cc3ccccn3)cnc2O[C@H]1CN(C)Cc1ccncc1	38.4% (inactive)
O=C(Nc1ccc(F)cc1)N1C[C@@H]2[C@H](c3ccccc31)[C@H](CO)N2Cc1cocn1	-11.6% (inactive)
C[C@H]1CN([C@@H](C)CO)S(=O)(=O)c2ccc(C#Cc3cccc(F)c3)cc2O[C@@H]1CN(C)C	-49.7% (inactive)
CCCNC(=O)N1[C@H](CO)[C@@H](c2ccc(C3=CCCC3)cc2)[C@@H]1CN(C)C(C)=O	37.6% (inactive)
Cc1cc(Cl)ccc1NC(=S)NCc1ccc(F)cc1	6.1% (inactive)
CCCNC(=O)C[C@@H]1CC[C@@H]2[C@H](COc3ccc(NC(=O)CCC)cc3C(=O)N2C)O1	52.7% (inactive)
COc1ccccc1CNC(=S)NCc1ccc(Cl)cc1	13.5% (inactive)
C[C@@H]1CN([C@H](C)CO)C(=O)c2cc(N(C)C)ccc2O[C@@H]1CN(C)C(=O)Nc1ccc(C(F)(F)F)cc1	-77.2% (inactive)
COc1ccccc1CNC(=O)COc1ccc2c(c1)CCC2	28.6% (inactive)
CO[C@@H]1CN(C)C(=O)c2cc(NS(=O)(=O)c3cccc(C)c3)ccc2OC[C@@H](C)NC[C@H]1C	4.92% (inactive)
C[C@H]1CN([C@@H](C)CO)C(=O)Cc2cc(N(C)C)ccc2O[C@@H]1CN(C)C(=O)Nc1ccc(C(F)(F)F)cc1	-28.9% (inactive)
O=C(COc1ccc2c(c1)CCC2)NCc1ccccc1	1.59% (inactive)
O=C(C[C@H]1CC[C@H]2[C@@H](COC[C@H](O)CN2C(=O)Nc2ccc3c(c2)OCO3)O1)N1CCN(c2ccccc2)CC1	5.63% (inactive)
COc1ccc(CN(C)C[C@H]2Oc3ccc(NS(C)(=O)=O)cc3CC(=O)N([C@@H](C)CO)C[C@H]2C)cc1	-1.35% (inactive)
Cc1noc(C)c1NC(=O)N(C)C[C@@H]1Oc2ccc(NC(=O)C3CC3)cc2CC(=O)N([C@H](C)CO)C[C@@H]1C	30.7% (inactive)
CC=Cc1ccc2n(c1=O)C[C@H]1[C@H](CO)[C@@H](C(=O)N3CCc4ccccc4C3)N(C(=O)C3CC3)[C@@H]21 (mixture of isomers)	-9.72% (inactive)
C[C@H]1CN([C@@H](C)CO)C(=O)Cc2cc(NC(=O)Nc3cccc4ccccc34)ccc2O[C@H]1CN(C)S(=O)(=O)c1cccs1	-25.9% (inactive)
CCNC(=O)COc1cccc(C(=O)NCc2ccccc2)c1	-54% (inactive)
C[C@@H]1CN([C@@H](C)CO)C(=O)CCCn2nncc2CO[C@H]1CN(C)Cc1cccc(C(F)(F)F)c1	-26.6% (inactive)

SMILES	activity change, negative = cytotoxicity
CNC(=O)C[C@@H]1CC[C@H]2[C@@H](COC[C@H](O)CN2C(=O)Nc2ccc3c(c2)OCO3)O1	-5.64% (inactive)
CC(C)NC(=O)Nc1ccc2c(c1)C(=O)N([C@@H](C)CO)C[C@@H](C)[C@H](CN(C)C(=O)Cc1ccccc1)OCCCC[C@@H](C)O2	37.8% (inactive)
Cc1noc(C)c1NC(=O)Nc1ccc2c(c1)C(=O)N([C@H](C)CO)C[C@H](C)[C@H](CN(C)CC1CCCCC1)O2	40.9% (inactive)
COc1ccc(NC(=S)NCc2ccc(Cl)cc2)c(OC)c1	0.916% (inactive)
COc1cc(C(=O)Oc2ccccc2N)cc(OC)c1OC	1.38% (inactive)
CC(C)COc1ccc(CNC(=S)NCc2ccccc2)cc1	-1.46% (inactive)
C[C@@H]1CN([C@@H](C)CO)C(=O)Cc2cc(NC(=O)Nc3cccc4ccccc34)ccc2O[C@@H]1CN(C)Cc1ccc(C(=O)O)cc1	30.4% (inactive)
CN(C)C(=O)c1ccc(-c2ccc([C@H]3[C@H](CO)N4CCCCN(CCC(F)(F)F)C[C@@H]34)cc2)cc1	-23.6% (inactive)
CCCC(=O)N1CCCC1(C)C(=O)Nc1cc(C)ccc1C (stereo unspecified)	3.87% (inactive)
CNC[C@@H]1OCCCC[C@@H](C)Oc2ccc(NS(=O)(=O)c3ccc(Cl)cc3)cc2C(=O)N([C@H](C)CO)C[C@H]1C	-31.3% (inactive)
C[C@@H]1CN([C@@H](C)CO)C(=O)c2cc(NC(=O)C3CC3)ccc2O[C@H]1CN(C)CC1CCCCC1	-17.8% (inactive)
C[C@@H]1CN([C@@H](C)CO)C(=O)c2cccc(N(C)C)c2O[C@H]1CN(C)C(=O)Nc1ccc(C(F)(F)F)cc1	-5.69% (inactive)
COC(=O)N(C)C[C@H]1OCc2cn(nn2)CCCC(=O)N([C@H](C)CO)C[C@@H]1C	-11% (inactive)
Cc1cc(C(=O)NC(=S)Nc2ccccc2N2CCCC2)ccc1[N+](=O)[O-]	-6.6% (inactive)
CO[C@H]1CN(C)C(=O)c2cc(NC(=O)c3ccccc3F)ccc2OC[C@H](C)N(C(C)=O)C[C@H]1C	-16.7% (inactive)
CC(C)NC(=O)Nc1cccc2c1O[C@@H](CN(C)C(=O)Nc1ccccc1)[C@@H](C)CN([C@@H](C)CO)C2=O	-13.9% (inactive)
Fc1ccccc1NC(=S)NCCc1cccc(Cl)c1	1.09% (inactive)
COCC#Cc1cnc2c(c1)C(=O)N([C@@H](C)CO)C[C@H](C)[C@H](CN(C)C(=O)Nc1ccc(OC)cc1)O2	21.8% (inactive)
CNC[C@@H]1Oc2cc(Br)ccc2S(=O)(=O)N([C@H](C)CO)C[C@H]1C	28.3% (inactive)
O=C(NC1CCCCC1)N[C@H]1C=C[C@@H](CC(=O)N2CCOCC2)O[C@@H]1CO	17.4% (inactive)

SMILES	activity change, negative = cytotoxicity
CNC[C@@H]1OCCCC[C@@H](C)Oc2ccc(NC(=O)NC(C)C)cc2C(=O)N([C@@H](C)CO)C[C@H]1C	34.5% (inactive)
C[C@H]1CN([C@@H](C)CO)C(=O)c2cccc(NS(C)(=O)=O)c2O[C@H]1CN(C)C(=O)Nc1ccc2c(c1)OCO2	20.3% (inactive)
C[C@@H]1CCCCO[C@@H](CN(C)S(=O)(=O)c2cccs2)[C@H](C)CN([C@@H](C)CO)C(=O)c2cc(NC(=O)CCC(F)(F)F)ccc2O1	-7.43% (inactive)
COCC(=O)NC[C@H]1N[C@H](CO)[C@@H]1c1ccc(C2=CCCC2)cc1	16.1% (inactive)
COc1ccc(NC(=O)Nc2ccc3c(c2)C(=O)N([C@@H](C)CO)C[C@@H](C)[C@H](CN(C)C(=O)Cc2ccccc2)OCCCC[C@H](C)O3)cc1	-2.88% (inactive)
COc1ccccc1NC(=O)N[C@H]1CC[C@@H](CCn2cc(-c3ccccc3OC)nn2)O[C@@H]1CO	-9.57% (inactive)
CCNC(=O)Nc1ccc2c(c1)C(=O)N(C)[C@H]1CC[C@H](CC(=O)Nc3ccccc3F)O[C@@H]1CO2	46.5% (inactive)
COc1ccc(-c2cnc3c(c2)C(=O)N([C@@H](C)CO)C[C@H](C)[C@@H](CN(C)S(C)(=O)=O)O3)cc1	-11.2% (inactive)
CO[C@H]1CN(C)C(=O)c2cc(NS(=O)(=O)CC(F)(F)F)ccc2OC[C@@H](C)N(Cc2cccnc2)C[C@@H]1C	-36.3% (inactive)
CO[C@H]1CN(C)C(=O)c2cc(NS(=O)(=O)c3ccc(C)cc3)ccc2OC[C@H](C)N(C)C[C@H]1C	13.7% (inactive)
Cc1c(C(=O)NC(=S)Nc2ccc(N3CCOCC3)cc2)cccc1[N+](=O)[O-]	-33.3% (inactive)
CNC(=O)C[C@H]1CC[C@H]2[C@@H](COc3ccc(NC(=O)Nc4ccccc4)cc3C(=O)N2C)O1	7.97% (inactive)
CCCN1C[C@@H](C)[C@H](OC)CN(C)C(=O)c2ccc(NC(=O)c3cccc(F)c3)cc2OC[C@@H]1C	-7.98% (inactive)
CO[C@@H]1CN(C)C(=O)c2cc(NS(=O)(=O)C3CCCCC3)ccc2OC[C@H](C)NC[C@@H]1C	0.127% (inactive)
COc1ccc(NC(=O)N(C)C[C@H]2OCCCC[C@@H](C)Oc3ccc(NC(=O)c4ccccc4)cc3C(=O)N([C@@H](C)CO)C[C@H]2C)cc1	7.8% (inactive)
CO[C@@H]1CN(C)C(=O)c2cc(NC(=O)Nc3cccc(F)c3)ccc2OC[C@H](C)N(C)C[C@@H]1C	-0.56% (inactive)
CNC[C@H]1Oc2ccc(NC(=O)Cc3cn(C)c4ccccc34)cc2CC(=O)N([C@@H](C)CO)C[C@H]1C	27% (inactive)
C/C=C/c1cnc2c(c1)C(=O)N([C@H](C)CO)C[C@@H](C)[C@@H](CN(C)C(=O)C1CCCCC1)O2	38.1% (inactive)
O=C([C@H]1[C@H](CO)[C@H]2Cn3c(cccc3=O)[C@@H]1N2Cc1cccc(Cl)c1)N1CCOCC1	-20.6% (inactive)

Same assay, conditions: HEK293T viability, ATP luminescence (CellTiter-Glo), 48 h; at 42 µM (top of the series)

SMILES	activity change, negative = cytotoxicity
Cc1cccc(C)c1NC(=O)C1NC(=O)CC1c1ccccc1 (stereo unspecified)	0.826% (inactive)
CCCC(=O)N1CCCC1(C)C(=O)Nc1cc(C)ccc1C (stereo unspecified)	-20.6% (inactive)
